Assay results reported in patent publication US20040220164A1, “Triaza compound immunoregulatory agents” (priority 2001, published 2004).
Converted amounts (≈) assume the structure as drawn. Like-named read-outs stand apart in the source and are kept apart here.

How the values were obtained:
HIV-1 strain NL4.3 = assay: Anti-HIV-1 assay in MT-4 cells (p24 Ag ELISA, Example 3); format: cell-based
In short: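 MT-4 cells infected with HIV-1 NL4.3 in presence of five-fold compound dilutions, incubated 3–5 days until strong viral CPE in untreated infected cells. Supernatant p24 core antigen measured by ELISA; IC50 is concentration giving 50% reduction in p24.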

HHV-7 (KHR strain) = assay: Anti-HHV-7 assay in SupT1 cells (antigen expression, flow cytometry, Example 3); format: cell-based; settings: SUP-T1; SupT1 cells; read-out: IC50 HHV-7 (50% reduction of HHV-7 antigen expression)
In short: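 SupT1 cells pre-incubated 30 min at room temperature with five-fold compound dilutions, then infected with HHV-7. Every 2–3 days from day 4, half the medium and cells were replaced with compound-free medium. Once microscopic CPE appeared, HHV-7 antigen expression was measured by flow cytometry.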

[1] = Cytotoxicity assay (trypan blue exclusion, propidium iodide); format: cell-based, human; settings: human, read-out: CC50 (50% cytotoxic concentration)
Procedure: Cytotoxicity Assay. Cellular toxicity of the compounds was measured by trypan blue exclusion and also by Propidium Iodide by flow cytometry after 3 or 4 days of incubation, in parallel with the CD4 antigen expression. The CC50 value of each CADA analog is the concentration (in μg/ml) required to reduce the viability of the cells by 50%.

CD4 [2] = target: T1, CD4 (Homo sapiens, UniProt P01730); assay: CD4 down-modulation, flow cytometry with FITC-conjugated anti-CD4 (SK3) mAb, MT-4 cells; format: cell-based; set-up: To study the effect of the CADA derivatives on surface CD4 antigen expression, MT-4 and SupT1 cells were incubated; endogenous in cells; host or cells: MT-4, SupT1, PBMC; settings: for down-regulation of CD4 receptor expression / IC50: MT-4 cells; for down-regulation of CD4 receptor expression: 4 days (FIG. 5); for IC50: day 3, read-out: IC50 CD4 (50% inhibition of extracellular CD4 expression) (converted)
CD4 [3] = target: T1, CD4; assay: CD4 down-modulation, flow cytometry with FITC-conjugated anti-CD4 (SK3) mAb, SupT1 cells; format: cell-based; set-up: To study the effect of the CADA derivatives on surface CD4 antigen expression, MT-4 and SupT1 cells were incubated; endogenous in cells; host or cells: MT-4, SupT1, PBMC; settings: for IC50: day 4, read-out: IC50 CD4 (50% inhibition of extracellular CD4 expression) (converted)
In short: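 MT-4 and SupT1 cells were exposed at 37 °C to 5-fold compound dilutions (50–0.08 μg/ml). On day 3 (MT-4) or day 4 (SupT1) they were stained with FITC anti-CD4 (SK3) for 30 min at 4 °C and analysed by flow cytometry. IC50 was derived from MFI as % of untreated control, after isotype subtraction.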

[4] = Human immunodeficiency virus 1, MT4, 96 h, MT-4 cells, 0.4 μg/ml, 4 days (FIG. 5), read-out: inhibition of NL4.3 virus production (p24)
[5] = Human immunodeficiency virus 1, MT4, MT-4 cells, read-out: IC50 HIV-1 (NL4.3), p24 Ag ELISA

SMILES | inhibition at 0.4 µg/mL (HIV-1 strain NL4.3; [4]) [%] | IC50 (HIV-1 strain NL4.3; [5]) [µg/mL] | IC50 (HHV-7 (KHR strain)) [µg/mL] | CC50 ([1]; MT-4 cells) [µg/mL] | CC50 ([1]; SupT1 cells) [µg/mL] | down-regulation of CD4 receptor expression (CD4 [2]; 0.4 μg/ml) | IC50 (CD4 [2]) [nM] | IC50 (CD4 [3]) [nM] | down-regulation of CD4 receptor expression (CD4 [2]; 2 μg/ml) | other results
C=C1CN(S(=O)(=O)c2ccc(C)cc2)CCCN(CC2CCCCC2)CCCN(S(=O)(=O)c2ccc(C)cc2)C1 [QJ028] | 88 | 0.2 (≈ 0.34 µM) | 0.05 (≈ 0.0851 µM) | 20.7 (≈ 35.2 µM) | 28.1 (≈ 47.8 µM) | 73% | 357 | 425 | – | CD4 down-regulating potency, fold more active than CADA (CD4 [2]; compared to CADA): 2 fold; selectivity index (CC50/IC50) (CD4 [3]): approximately 100
C=C1CN(S(=O)(=O)c2ccc(C)cc2)CCCN(Cc2ccccc2)CCCN(S(=O)(=O)c2ccc(C)cc2)C1 [CADA] | 25 | 0.72 (≈ 1.24 µM) | 0.35 (≈ 0.602 µM) | 23.6 (≈ 40.6 µM) | > 50 | 58% | 602 | 980 | significantly down-modulated | IC50 (HIV-1 strain NL4.3; Human immunodeficiency virus 1, MT4 cells, Table 6, unit inferred, read-out: IC50(HIV-1)): 0.52 µg/mL (≈ 0.894 µM); inhibition of NL4.3 virus production (p24) (HIV-1 strain NL4.3; MT-4 cells, 0.08 μg/ml, 4 days (FIG. 5)): no anti-HIV-1 activity; inhibition of NL4.3 virus production (p24) (HIV-1 strain NL4.3; MT-4 cells, 2 μg/ml, 4 days (FIG. 5)): significant inhibition; inhibition of NL4.3 virus production (p24) (HIV-1 strain NL4.3; MT-4 cells, 10 μg/ml, 4 days (FIG. 5)): significant inhibition; p24 level (HIV-1 strain NL4.3; MT-4 cells, NL4.3, 0.08 μg/ml, 4 days, infected control cells 325 ng/ml): 392 ng/mL; down-regulation of CD4 receptor expression (CD4 [2]; 0.08 μg/ml): no inhibitory effect; down-regulation of CD4 receptor expression (CD4 [2]; 10 μg/ml): significantly down-modulated
C=C1CN(S(=O)(=O)c2ccc(C)cc2)CCCN(C(=O)OCCC)CCCN(S(=O)(=O)c2ccc(C)cc2)C1 [QJ033] | – | 1.22 (≈ 2.11 µM) | 0.73 (≈ 1.26 µM) | 25.5 (≈ 44.1 µM) | 32.5 (≈ 56.3 µM) | nor significant CD4 down-regulation | 2060 | 3270 | 69% | inhibition at 2 µg/mL (HIV-1 strain NL4.3; Human immunodeficiency virus 1, MT4, 96 h, MT-4 cells, 2 μg/ml, 4 days (FIG. 5), read-out: inhibition of NL4.3 virus production (p24)): 56%; inhibition of NL4.3 virus production (p24) (HIV-1 strain NL4.3; MT-4 cells, 0.4 μg/ml, 4 days (FIG. 5)): no antiviral activity; CD4 receptor down-modulating activity, fold higher than compound 95-213 (CD4 [2]; compared to 95-213): 5 fold
